Test results published in US20240350642A1, “SUSTAINED RELEASE DOSAGE FORMS FOR LOW SOLUBILITY COMPOUNDS AND METHODS FOR PREPARING OF THESE SUSTAINED RELEASE DOSAGE FORMS” (priority 2023, published 2024).
“Also recorded” adds a separate entry of the source.

Tests used:
Format in all cases: physicochemical
[1] = Solubility of the API in aqueous media
Method: A different aqueous media may be selected if required for stability reasons of the API; e.g., decompensation of the at pH 6.8 or change of the polymorph of the API, e.g. salt formation of a base under low pH conditions and vis versa base formation of API with a strong acid at higher pH values. Preferably, aqueous conditions are selected to maintain an unchanged API polymorph. The amount dissolved is determined either by measuring the concentration at the defined time points and the amount dissolved is plotted versus time. The amount at each time point is determined by a suitable assay method, e.g., UV for API with sufficient extinction coefficient or HPLC with low extinction coefficient.

[2] = Solubility of Cannabidiol in USP dissolution apparatus before and after adding HP-β-Cyclodextrin (experiment 12)
Method: FIGS. 5A and 5B refer to a method to determine the solubility of low soluble API and determination of the solubility enhancing effect of an API: Cyclodextrin complex. Accurately weighted amounts of the low soluble API, higher than its intrinsic solubility in the volume and pH of the aqueous media, is added to a defined volume into a vessel of the standard dissolution test apparatus 1 or 2 as defined in US Pharmacopeia (chapter <711> “Dissolution”) at pH conditions suitable for the API as explained above and at standard temperature conditions at the site of absorption e.g., 37° C. and paddle rotation of 50 rpm, with either water or standard aqueous media at pH 1, pH 2, water or buffer pH 6.8. It is to be assured by visual check that the API is not or not fully dissolved to ensure that the added amount is higher than the intrinsic solubility of the API. The dissolution of the API is checked for between 30 Min. and 3 hours, and the amount dissolved is measured with a suitable assay method like UV or HPLC and plotted against time. […]
An accurately weighted amount of Cannabidiol was dissolved in ethanol resulting in a solution containing 5 mg/ml. […] The amount of dissolved CBD was monitored. […]

[3] = Solubility of Ketoconazole in USP dissolution apparatus before and after adding HP-β-Cyclodextrin (experiment 13)
Method: FIGS. 5A and 5B refer to a method to determine the solubility of low soluble API and determination of the solubility enhancing effect of an API: Cyclodextrin complex. Accurately weighted amounts of the low soluble API, higher than its intrinsic solubility in the volume and pH of the aqueous media, is added to a defined volume into a vessel of the standard dissolution test apparatus 1 or 2 as defined in US Pharmacopeia (chapter <711> “Dissolution”) at pH conditions suitable for the API as explained above and at standard temperature conditions at the site of absorption e.g., 37° C. and paddle rotation of 50 rpm, with either water or standard aqueous media at pH 1, pH 2, water or buffer pH 6.8. It is to be assured by visual check that the API is not or not fully dissolved to ensure that the added amount is higher than the intrinsic solubility of the API. The dissolution of the API is checked for between 30 Min. and 3 hours, and the amount dissolved is measured with a suitable assay method like UV or HPLC and plotted against time. After the initial phase at least a 100-time overage of the desired complex forming Cyclodextrin, in a suitable complex forming ratio with the API, is added to the dissolution vessel and the dissolution determination is continued for up to 24 hours until the amount of dissolved API reaches a plateau. […]

SMILES	solubility in aqueous media (words) ([1]; any pH or pH not given)	solubility in aqueous media (words) ([1]; any pH or pH not given, listed as Cannabidiol)	solubility of CBD after overage of HP-β-Cyclodextrin ([2]; 500 ml aqueous media pH 2)	solubility of CBD before Cyclodextrin addition ([2]; 500 ml aqueous media pH 2, added as solution in ethanol)	solubility in aqueous media (words) ([1]; pH 2)	solubility in aqueous media (words) ([1]; pH 6.8)	solubility of Ketoconazole after overage of HP-β-Cyclodextrin ([3]; 500 ml aqueous media pH 6.8)	solubility of Ketoconazole before Cyclodextrin addition ([3]; 500 ml aqueous media pH 6.8, added as powder)
C=C(C)[C@@H]1CCC(C)=C[C@H]1c1c(O)cc(CCCCC)cc1O [CBD, Cannabidiol]	very insoluble	insoluble	significantly increased	almost insoluble				
CC(=O)N1CCN(c2ccc(OCC3COC(Cn4ccnc4)(c4ccc(Cl)cc4Cl)O3)cc2)CC1 (centres unmarked) [Ketoconazole]					low soluble	very insoluble; also recorded: less soluble; also recorded: very low soluble	significantly increased	visibly insoluble
